From US20170319572A1, “COMBINATION DRUG TREATMENT FOR HEPATITIS C INFECTION” (JANSSEN PHARMACEUTICALS, INC., priority 2015, published 2017)

Key:
[1] = molecular target: Pgp (Homo sapiens, UniProt P08183); conditions: cited from earlier work
[2] = molecular target: T1, OATP1B3 (Homo sapiens, UniProt Q9NPD5); conditions: cited from earlier work
T1 sequence (Q9NPD5 1-702): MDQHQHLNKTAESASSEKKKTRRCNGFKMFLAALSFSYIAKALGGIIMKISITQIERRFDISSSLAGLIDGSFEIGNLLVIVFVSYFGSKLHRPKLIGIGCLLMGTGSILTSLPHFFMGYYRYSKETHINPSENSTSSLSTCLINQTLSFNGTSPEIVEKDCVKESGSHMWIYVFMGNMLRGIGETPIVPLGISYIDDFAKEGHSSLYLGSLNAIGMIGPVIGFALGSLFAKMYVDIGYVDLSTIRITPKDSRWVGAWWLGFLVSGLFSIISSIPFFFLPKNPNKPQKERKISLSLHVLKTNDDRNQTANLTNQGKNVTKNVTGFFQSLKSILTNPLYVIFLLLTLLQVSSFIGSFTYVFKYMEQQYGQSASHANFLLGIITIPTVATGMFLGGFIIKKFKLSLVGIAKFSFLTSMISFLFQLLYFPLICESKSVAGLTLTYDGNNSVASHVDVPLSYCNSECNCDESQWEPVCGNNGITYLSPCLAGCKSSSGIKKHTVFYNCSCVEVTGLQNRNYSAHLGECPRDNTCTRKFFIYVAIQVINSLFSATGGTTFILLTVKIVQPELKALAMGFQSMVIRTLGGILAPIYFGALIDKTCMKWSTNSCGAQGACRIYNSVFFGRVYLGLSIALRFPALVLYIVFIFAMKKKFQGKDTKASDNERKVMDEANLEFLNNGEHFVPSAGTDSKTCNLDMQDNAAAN

[3] = Phase 2a open-label combination study, pharmacokinetics and safety; assay type: in vivo, human; conditions: for change of exposure on reducing ODV dosing from QD to QOD: 50 mg
Protocol: A randomized, Phase 2a, open-label study was carried out to evaluate the safety, pharmacokinetics and efficacy of the combination of Compound (III), Odalasvir and Simeprevir in Genotype 1 treatment-naïve subjects with chronic hepatitis C. Other treatment-naïve subjects included Genotype 2, 3, 4, 5 and 6. The aim of the study was to determine the efficacy, pharmacokinetics (PK), and safety of Compound (III)+Odalasvir±SMV in HCV-infected subjects. […] Efficacy, PK and safety evaluations were conducted during and through 24 weeks post dosing. Up to 15 cohorts were enrolled; data was generated from cohorts that have completed dosing.

[4] = molecular target: MRP2 (Homo sapiens, UniProt Q92887); conditions: MRP2/3; cited from earlier work
[5] = molecular target: BSEP (Homo sapiens, UniProt O95342); conditions: cited from earlier work
[6] = PK analysis of fixed dose combinations vs single agents, single dose in healthy volunteers; assay type: in vivo, human; conditions: Arm 2 (FDC02) vs reference (Arm 1); 90% CI in the row below
Protocol: SMV (100 mg), ODV (50 mg), and Compound (III) (800 mg) were administered as three different formulations or together as single doses in vivo to healthy volunteers. The arms of the study included: • Arm 1 (Reference Arm): Single oral doses of single agents, one SMV 100-mg capsule, one ODV 50-mg tablet as granule layered solid dispersion with copovidone and poloxamers, and two Compound (III) 400-mg tablets, administered together. • Arm 2: Single oral dose of fixed dose combination (FDC02): SMV 100 mg+ODV 50 mg as a spray dried solid dispersion with HPMC-AS L in a ratio ODV/HPMC-AS L 1/1 w/w+Compound (III) 800 mg • Arm 3: Single oral dose of fixed dose combination (FDC04): SMV 100 mg+ODV 50 mg as a spray dried solid dispersion with HPMC-AS L in a ratio ODV/HPMC-AS L 1/3 w/w+Compound (III) 800 mg • Arm 4: Single oral dose of fixed dose combination (FDC01): SMV 100 mg+ODV 50 mg as a spray dried solid dispersion with copovidone and poloxamers+Compound (III) 800 mg
PK parameters, including Cmax, tmax, AUClast, and AUC∞ were measured for Compound (III), ODV, SMV, and metabolites Compound A-I and Compound A-3 for each Arm of the study. Arms that included fixed dose combinations (FDC) (Arm 2, Arm 3, and Arm 4) were then compared to a single oral dose (Arm 1, the reference Arm). […]

[7] = molecular target: MRP3 (Homo sapiens, UniProt O15438); conditions: MRP2/3; cited from earlier work

Sequence of BSEP (O95342 whole entry): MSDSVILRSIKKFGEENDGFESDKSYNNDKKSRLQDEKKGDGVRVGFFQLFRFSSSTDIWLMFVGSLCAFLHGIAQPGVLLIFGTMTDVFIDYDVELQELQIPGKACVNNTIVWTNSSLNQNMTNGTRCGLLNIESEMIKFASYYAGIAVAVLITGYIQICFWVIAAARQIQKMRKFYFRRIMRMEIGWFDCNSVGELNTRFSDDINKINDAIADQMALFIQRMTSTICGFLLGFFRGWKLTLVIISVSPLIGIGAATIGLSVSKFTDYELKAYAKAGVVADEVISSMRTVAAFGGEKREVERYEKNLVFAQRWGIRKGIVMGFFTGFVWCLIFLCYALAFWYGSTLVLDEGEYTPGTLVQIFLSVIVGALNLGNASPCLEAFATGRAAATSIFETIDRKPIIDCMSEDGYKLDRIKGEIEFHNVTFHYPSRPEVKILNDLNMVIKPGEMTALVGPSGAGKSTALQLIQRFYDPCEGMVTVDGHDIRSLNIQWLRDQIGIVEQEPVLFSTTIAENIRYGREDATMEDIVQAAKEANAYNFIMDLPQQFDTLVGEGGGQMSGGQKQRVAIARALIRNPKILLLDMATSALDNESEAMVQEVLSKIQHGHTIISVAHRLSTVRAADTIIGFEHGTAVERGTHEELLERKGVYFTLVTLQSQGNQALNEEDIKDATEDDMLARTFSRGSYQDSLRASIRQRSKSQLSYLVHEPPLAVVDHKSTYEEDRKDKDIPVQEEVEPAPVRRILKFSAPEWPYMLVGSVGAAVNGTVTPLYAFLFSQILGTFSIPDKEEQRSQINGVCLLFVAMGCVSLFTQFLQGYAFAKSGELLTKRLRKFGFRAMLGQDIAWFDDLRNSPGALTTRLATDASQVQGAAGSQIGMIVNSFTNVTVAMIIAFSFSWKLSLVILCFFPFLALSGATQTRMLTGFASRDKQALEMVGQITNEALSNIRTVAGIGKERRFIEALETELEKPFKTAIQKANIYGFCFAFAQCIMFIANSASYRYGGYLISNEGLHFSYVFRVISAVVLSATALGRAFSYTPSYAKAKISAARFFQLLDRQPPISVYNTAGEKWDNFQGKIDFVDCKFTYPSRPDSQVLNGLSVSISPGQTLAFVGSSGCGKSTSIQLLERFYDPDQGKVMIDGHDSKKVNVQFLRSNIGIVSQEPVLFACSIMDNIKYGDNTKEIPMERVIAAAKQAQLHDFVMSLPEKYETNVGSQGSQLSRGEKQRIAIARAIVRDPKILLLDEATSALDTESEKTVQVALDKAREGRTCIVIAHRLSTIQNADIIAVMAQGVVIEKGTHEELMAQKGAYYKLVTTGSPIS
Sequence of Pgp (P08183 whole entry): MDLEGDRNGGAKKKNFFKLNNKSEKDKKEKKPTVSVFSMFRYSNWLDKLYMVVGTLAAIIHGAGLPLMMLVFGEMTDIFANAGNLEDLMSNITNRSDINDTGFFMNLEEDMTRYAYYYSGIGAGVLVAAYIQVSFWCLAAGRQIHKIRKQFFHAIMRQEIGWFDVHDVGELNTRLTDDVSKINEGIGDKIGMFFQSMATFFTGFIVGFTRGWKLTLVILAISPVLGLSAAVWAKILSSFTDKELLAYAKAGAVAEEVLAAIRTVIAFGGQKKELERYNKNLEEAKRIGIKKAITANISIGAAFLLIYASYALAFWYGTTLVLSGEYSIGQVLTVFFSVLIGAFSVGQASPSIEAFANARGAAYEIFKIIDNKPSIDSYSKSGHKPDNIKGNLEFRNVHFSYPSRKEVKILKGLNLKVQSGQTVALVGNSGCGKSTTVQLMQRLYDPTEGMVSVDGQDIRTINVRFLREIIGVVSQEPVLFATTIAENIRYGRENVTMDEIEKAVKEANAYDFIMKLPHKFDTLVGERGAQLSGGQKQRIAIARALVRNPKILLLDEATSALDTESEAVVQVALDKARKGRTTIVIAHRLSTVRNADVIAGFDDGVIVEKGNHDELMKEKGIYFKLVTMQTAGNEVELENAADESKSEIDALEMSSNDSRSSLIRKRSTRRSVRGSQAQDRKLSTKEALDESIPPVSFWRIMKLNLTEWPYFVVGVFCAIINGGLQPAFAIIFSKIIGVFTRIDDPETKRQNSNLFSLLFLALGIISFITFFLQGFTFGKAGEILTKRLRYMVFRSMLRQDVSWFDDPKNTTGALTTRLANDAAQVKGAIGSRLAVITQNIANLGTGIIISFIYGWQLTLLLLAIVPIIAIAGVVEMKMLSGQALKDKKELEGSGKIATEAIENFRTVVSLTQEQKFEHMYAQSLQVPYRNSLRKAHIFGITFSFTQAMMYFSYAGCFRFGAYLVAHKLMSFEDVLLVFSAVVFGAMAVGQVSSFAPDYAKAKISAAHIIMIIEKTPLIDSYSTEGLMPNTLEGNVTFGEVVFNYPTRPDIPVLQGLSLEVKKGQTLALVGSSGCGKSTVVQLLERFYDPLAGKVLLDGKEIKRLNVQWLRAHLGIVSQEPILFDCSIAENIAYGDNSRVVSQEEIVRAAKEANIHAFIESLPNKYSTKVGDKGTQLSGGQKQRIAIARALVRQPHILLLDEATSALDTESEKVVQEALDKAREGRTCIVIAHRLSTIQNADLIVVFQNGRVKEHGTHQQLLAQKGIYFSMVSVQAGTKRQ
Sequence of MRP2 (Q92887 whole entry): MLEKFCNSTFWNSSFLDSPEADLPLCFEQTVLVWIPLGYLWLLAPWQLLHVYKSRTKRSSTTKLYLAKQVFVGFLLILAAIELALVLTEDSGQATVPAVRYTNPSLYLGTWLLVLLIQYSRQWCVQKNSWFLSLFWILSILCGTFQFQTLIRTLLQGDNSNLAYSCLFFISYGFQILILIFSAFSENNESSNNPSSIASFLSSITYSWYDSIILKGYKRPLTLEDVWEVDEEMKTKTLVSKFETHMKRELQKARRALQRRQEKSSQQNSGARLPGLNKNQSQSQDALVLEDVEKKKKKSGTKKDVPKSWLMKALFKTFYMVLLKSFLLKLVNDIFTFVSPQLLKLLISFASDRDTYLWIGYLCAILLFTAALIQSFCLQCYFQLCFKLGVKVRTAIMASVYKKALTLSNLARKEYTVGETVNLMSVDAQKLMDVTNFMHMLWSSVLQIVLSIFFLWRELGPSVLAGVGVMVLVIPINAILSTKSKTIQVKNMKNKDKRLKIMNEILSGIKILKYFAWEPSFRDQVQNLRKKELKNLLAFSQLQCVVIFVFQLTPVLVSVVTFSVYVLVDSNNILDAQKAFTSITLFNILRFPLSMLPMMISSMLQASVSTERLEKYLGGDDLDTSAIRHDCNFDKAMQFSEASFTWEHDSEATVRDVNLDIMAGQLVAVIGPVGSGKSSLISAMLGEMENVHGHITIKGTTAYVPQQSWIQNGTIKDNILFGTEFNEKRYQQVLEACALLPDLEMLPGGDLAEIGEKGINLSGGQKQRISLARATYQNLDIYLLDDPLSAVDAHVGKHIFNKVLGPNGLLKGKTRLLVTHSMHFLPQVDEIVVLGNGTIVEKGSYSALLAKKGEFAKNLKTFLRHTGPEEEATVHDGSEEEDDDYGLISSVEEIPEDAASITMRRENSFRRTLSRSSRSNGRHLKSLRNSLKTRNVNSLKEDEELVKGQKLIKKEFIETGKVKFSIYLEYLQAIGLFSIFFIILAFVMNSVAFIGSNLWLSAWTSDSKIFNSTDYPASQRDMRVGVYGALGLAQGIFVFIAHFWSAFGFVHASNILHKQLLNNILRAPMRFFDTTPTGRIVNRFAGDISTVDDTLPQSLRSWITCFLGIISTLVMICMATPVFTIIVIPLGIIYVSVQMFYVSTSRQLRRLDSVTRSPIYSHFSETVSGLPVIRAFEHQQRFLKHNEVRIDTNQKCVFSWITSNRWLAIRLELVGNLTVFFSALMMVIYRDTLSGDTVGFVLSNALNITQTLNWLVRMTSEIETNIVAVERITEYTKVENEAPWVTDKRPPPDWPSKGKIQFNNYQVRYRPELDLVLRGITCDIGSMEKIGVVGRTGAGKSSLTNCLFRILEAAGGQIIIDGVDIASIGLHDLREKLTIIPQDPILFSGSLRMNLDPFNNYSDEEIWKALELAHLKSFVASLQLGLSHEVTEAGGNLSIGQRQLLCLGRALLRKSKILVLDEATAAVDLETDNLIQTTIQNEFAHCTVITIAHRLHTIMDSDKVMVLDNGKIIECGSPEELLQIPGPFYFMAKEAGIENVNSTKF

SMILES | in vitro inhibition of Pgp [1] | inhibition of OATP1B3 [2] | change of exposure on reducing ODV dosing from QD to QOD [3] | change of exposure on reducing ODV dosing from QD to QOD ([3]; listed as Odalasvir) | observed exposure in Cohort 1 / group (i) ([3]; Compound (III) 400 mg, ODV 50 mg QD, SMV 100 mg QD) | inhibition of MRP2 [4] | inhibition of BSEP [5] | Least Square Means Ratio, Cmax [6] [%] | inhibition of MRP3 [7]
CC(C)OC(=O)[C@H](C)N[P@](=O)(OC[C@@]1(F)O[C@@H](n2ccc(=O)[nH]c2=O)[C@](C)(O)[C@@H]1O)Oc1ccccc1 [Compound (III), isopropyl ((S)-(((2S,3S,4R,5R)-5-(2,4-dioxo-3,4-dihydropyrimidin-1 (2H)-yl)-2-fluoro-3,4-dihydroxy-4-methyltetrahydrofuran-2-yl)methoxy)(phenoxy)phosphoryl)-L-alaninate] | no in vitro inhibition | no in vitro inhibition |  |  |  |  |  |  | 
COC(=O)N[C@H](C(=O)N1[C@H](c2nc3cc(-c4cc5ccc4CCc4ccc(c(-c6ccc7[nH]c([C@@H]8C[C@@H]9CCCC[C@@H]9N8C(=O)[C@@H](NC(=O)OC)C(C)C)nc7c6)c4)CC5)ccc3[nH]2)C[C@@H]2CCCC[C@@H]21)C(C)C [ODV, methyl [(2S)-1-[(2S,3aS,7aS)-2-[6-[11-[2-[(2S,3aS,7aS)-1-[(2S)-2-[(methoxycarbonyl)amino]-3-methylbutanoyl]octahydro-1H-indol-2-yl]-1H-benzimidazol-6-yl]tricyclo[8.2.2.2^4,7]hexadeca-1(12),4,6,10,13,15-hexaen-5-yl]-1H-benzimidazol-2-yl]octahydro-1H-indol-1-yl]-3-methyl-1-oxobutan-2-yl]carbamate] |  | no inhibition | decreased ODV exposure proportionally | decreased Odalasvir exposure proportionally | higher than anticipated | no inhibition | no inhibition | 81.00 | no inhibition
